Test system: HIV
Assay: Table 1 IC50 of the examples (assay method not given; patent concerns inhibiting HIV replication)
Assay type: cell-based
Settings: Human immunodeficiency virus 1

| Structure (SMILES) | IC50 [nM] |
| --- | --- |
| Cc1cc2c(c(-c3cc(F)c4c(c3C)CCCO4)c1[C@H](OC(C)(C)C)C(=O)O)CCN2C(=O)c1ccccc1Cl (atropisomer, axis not shown) [Example 98, (S)-2-(tert-Butoxy)-2-((R)-1-(2-chlorobenzoyl)-4-(8-fluoro-5-methylchroman-6-yl)-6-methylindolin-5-yl)acetic acid] | 2 |
| COc1ccc(C)cc1C(=O)N1CCc2c1cc(C)c([C@H](OC(C)(C)C)C(=O)O)c2-c1cc(F)c2c(c1C)CCCO2 (atropisomer, axis not shown) [Example 99, (S)-2-(tert-Butoxy)-2-((R)-4-(8-fluoro-5-methylchroman-6-yl)-1-(2-methoxy-5-methylbenzoyl)-6-methylindolin-5-yl)acetic acid] | 4 |
| Cc1cc2c(c(-c3cc(F)c4c(c3C)CCCO4)c1[C@H](OC(C)(C)C)C(=O)O)CCN2C(=O)c1cccc2c1OCC2 (atropisomer, axis not shown) [Example 100, (S)-2-(tert-Butoxy)-2-((R)-1-(2,3-dihydrobenzofuran-7-carbonyl)-4-(8-fluoro-5-methylchroman-6-yl)-6-methylindolin-5-yl)acetic acid] | 5 |
| COc1ccc(F)cc1C(=O)N1CCc2c1cc(C)c([C@H](OC(C)(C)C)C(=O)O)c2-c1cc(F)c2c(c1C)CCCO2 (atropisomer, axis not shown) [Example 101, (S)-2-(tert-Butoxy)-2-((R)-1-(5-fluoro-2-methoxybenzoyl)-4-(8-fluoro-5-methylchroman-6-yl)-6-methylindolin-5-yl)acetic acid] | 5 |
| COc1ccc(C(=O)N2CCc3c2cc(C)c([C@H](OC(C)(C)C)C(=O)O)c3-c2cc(F)c3c(c2C)CCCO3)cc1C (atropisomer, axis not shown) [Example 102, (S)-2-(tert-Butoxy)-2-((R)-4-(8-fluoro-5-methylchroman-6-yl)-1-(4-methoxy-3-methylbenzoyl)-6-methylindolin-5-yl)acetic acid] | 2 |
| Cc1cc2c(c(-c3cc(F)c4c(c3C)CCCO4)c1[C@H](OC(C)(C)C)C(=O)O)CCN2C(=O)c1cc(Cl)ccn1 (atropisomer, axis not shown) [Example 103, (S)-2-(tert-Butoxy)-2-((R)-1-(4-chloropicolinoyl)-4-(8-fluoro-5-methylchroman-6-yl)-6-methylindolin-5-yl)acetic acid] | 16 |
| CC(=O)Nc1ccc(C(=O)N2CCc3c2cc(C)c([C@H](OC(C)(C)C)C(=O)O)c3-c2cc(F)c3c(c2C)CCCO3)cc1 (atropisomer, axis not shown) [Example 104, (S)-2-((R)-1-(4-Acetamidobenzoyl)-4-(8-fluoro-5-methylchroman-6-yl)-6-methylindolin-5-yl)-2-(tert-butoxy)acetic acid] | 323 |
| COc1ccc(OC)c(C(=O)N2CCc3c2cc(C)c([C@H](OC(C)(C)C)C(=O)O)c3-c2cc(F)c3c(c2C)CCCO3)c1 (atropisomer, axis not shown) [Example 106, (S)-2-(tert-Butoxy)-2-((R)-1-(2,5-dimethoxybenzoyl)-4-(8-fluoro-5-methylchroman-6-yl)-6-methylindolin-5-yl)acetic acid] | 11 |
| COc1ccc(C)c(C(=O)N2CCc3c2cc(C)c([C@H](OC(C)(C)C)C(=O)O)c3-c2cc(F)c3c(c2C)CCCO3)c1 (atropisomer, axis not shown) [Example 107, (S)-2-(tert-Butoxy)-2-((R)-4-(8-fluoro-5-methylchroman-6-yl)-1-(5-methoxy-2-methylbenzoyl)-6-methylindolin-5-yl)acetic acid] | 5 |
| Cc1ccc(C(=O)N2CCc3c2cc(C)c([C@H](OC(C)(C)C)C(=O)O)c3-c2cc(F)c3c(c2C)CCCO3)cc1 (atropisomer, axis not shown) [Example 108, (S)-2-(tert-Butoxy)-2-((R)-4-(8-fluoro-5-methylchroman-6-yl)-6-methyl-1-(4-methylbenzoyl)indolin-5-yl)acetic acid] | 4 |
| Cc1cc2c(c(-c3cc(F)c4c(c3C)CCCO4)c1[C@H](OC(C)(C)C)C(=O)O)CCN2C(=O)c1cc(F)ccc1F (atropisomer, axis not shown) [Example 109, (S)-2-(tert-Butoxy)-2-((R)-1-(2,5-difluorobenzoyl)-4-(8-fluoro-5-methylchroman-6-yl)-6-methylindolin-5-yl)acetic acid] | 11 |
| Cc1cc(C(=O)N2CCc3c2cc(C)c([C@H](OC(C)(C)C)C(=O)O)c3-c2cc(F)c3c(c2C)CCCO3)ccc1Cl (atropisomer, axis not shown) [Example 110, (S)-2-(tert-Butoxy)-2-((R)-1-(4-chloro-3-methylbenzoyl)-4-(8-fluoro-5-methylchroman-6-yl)-6-methylindolin-5-yl)acetic acid] | 4 |
| Cc1cc2c(c(-c3cc(F)c4c(c3C)CCCO4)c1[C@H](OC(C)(C)C)C(=O)O)CCN2C(=O)c1c(F)cccc1F (atropisomer, axis not shown) [Example 111, (S)-2-(tert-Butoxy)-2-((R)-1-(2,6-difluorobenzoyl)-4-(8-fluoro-5-methylchroman-6-yl)-6-methylindolin-5-yl)acetic acid] | 43 |
| Cc1cc2c(c(-c3cc(F)c4c(c3C)CCCO4)c1[C@H](OC(C)(C)C)C(=O)O)CCN2C(=O)c1ccc(C(=O)N2CCCCC2)cc1 (atropisomer, axis not shown) [Example 112, (S)-2-(tert-Butoxy)-2-((R)-4-(8-fluoro-5-methylchroman-6-yl)-6-methyl-1-(4-(piperidine-1-carbonyl)benzoyl)indolin-5-yl)acetic acid] | 295 |
| COc1c(C(=O)N2CCc3c2cc(C)c([C@H](OC(C)(C)C)C(=O)O)c3-c2cc(F)c3c(c2C)CCCO3)ccc(F)c1F (atropisomer, axis not shown) [Example 113, (S)-2-(tert-Butoxy)-2-((R)-1-(3,4-difluoro-2-methoxybenzoyl)-4-(8-fluoro-5-methylchroman-6-yl)-6-methylindolin-5-yl)acetic acid] | 2 |
| Cc1cc2c(c(-c3cc(F)c4c(c3C)CCCO4)c1[C@H](OC(C)(C)C)C(=O)O)CCN2C(=O)c1cccc2c1OCO2 (atropisomer, axis not shown) [Example 114, (S)-2-((R)-1-(Benzo[d][1,3]dioxole-4-carbonyl)-4-(8-fluoro-5-methylchroman-6-yl)-6-methylindolin-5-yl)-2-(tert-butoxy)acetic acid] | 5 |
| Cc1ccc(C(=O)N2CCc3c2cc(C)c([C@H](OC(C)(C)C)C(=O)O)c3-c2cc(F)c3c(c2C)CCCO3)cc1Cl (atropisomer, axis not shown) [Example 115, (S)-2-(tert-Butoxy)-2-((R)-1-(3-chloro-4-methylbenzoyl)-4-(8-fluoro-5-methylchroman-6-yl)-6-methylindolin-5-yl)acetic acid] | 5 |
| Cc1ccc(C(=O)N2CCc3c2cc(C)c([C@H](OC(C)(C)C)C(=O)O)c3-c2cc(F)c3c(c2C)CCCO3)cn1 (atropisomer, axis not shown) [Example 116, (S)-2-(tert-Butoxy)-2-((R)-4-(8-fluoro-5-methylchroman-6-yl)-6-methyl-1-(6-methylnicotinoyl)indolin-5-yl)acetic acid] | 11 |
| COc1cc(Cl)cc(C(=O)N2CCc3c2cc(C)c([C@H](OC(C)(C)C)C(=O)O)c3-c2cc(F)c3c(c2C)CCCO3)c1 (atropisomer, axis not shown) [Example 117] | 16 |
| Cc1cccc(C(=O)N2CCc3c2cc(C)c([C@H](OC(C)(C)C)C(=O)O)c3-c2cc(F)c3c(c2C)CCCO3)c1F (atropisomer, axis not shown) [Example 118, (S)-2-(tert-Butoxy)-2-((R)-1-(2-fluoro-3-methylbenzoyl)-4-(8-fluoro-5-methylchroman-6-yl)-6-methylindolin-5-yl)acetic acid] | 5 |
| Cc1cc2c(c(-c3cc(F)c4c(c3C)CCCO4)c1[C@H](OC(C)(C)C)C(=O)O)CCN2C(=O)c1ccc(F)c(Cl)c1 (atropisomer, axis not shown) [Example 119, (S)-2-(tert-Butoxy)-2-((R)-1-(3-chloro-4-fluorobenzoyl)-4-(8-fluoro-5-methylchroman-6-yl)-6-methylindolin-5-yl)acetic acid] | 3 |
| Cc1cc2c(c(-c3cc(F)c4c(c3C)CCCO4)c1[C@H](OC(C)(C)C)C(=O)O)CCN2C(=O)C(C)(C)C (atropisomer, axis not shown) [Example 120, (S)-2-(tert-Butoxy)-2-((R)-4-(8-fluoro-5-methylchroman-6-yl)-6-methyl-1-pivaloylindolin-5-yl)acetic acid] | 91 |
| Cc1cccc(C(=O)N2CCc3c2cc(C)c([C@H](OC(C)(C)C)C(=O)O)c3-c2cc(F)c3c(c2C)CCCO3)c1C (atropisomer, axis not shown) [Example 121, (S)-2-(tert-Butoxy)-2-((R)-1-(2,3-dimethylbenzoyl)-4-(8-fluoro-5-methylchroman-6-yl)-6-methylindolin-5-yl)acetic acid] | 7 |
| Cc1cc2c(c(-c3cc(F)c4c(c3C)CCCO4)c1[C@H](OC(C)(C)C)C(=O)O)CCN2C(=O)c1ccc2c(c1)CCC2 (atropisomer, axis not shown) [Example 122, (S)-2-(tert-Butoxy)-2-((R)-1-(2,3-dihydro-1H-indene-5-carbonyl)-4-(8-fluoro-5-methylchroman-6-yl)-6-methylindolin-5-yl)acetic acid] | 17 |
| COc1cc(C(=O)N2CCc3c2cc(C)c([C@H](OC(C)(C)C)C(=O)O)c3-c2cc(F)c3c(c2C)CCCO3)ccc1Cl (atropisomer, axis not shown) [Example 123, (S)-2-(tert-Butoxy)-2-((R)-1-(4-chloro-3-methoxybenzoyl)-4-(8-fluoro-5-methylchroman-6-yl)-6-methylindolin-5-yl)acetic acid] | 3 |
| COc1ccc(C(=O)N2CCc3c2cc(C)c([C@H](OC(C)(C)C)C(=O)O)c3-c2cc(F)c3c(c2C)CCCO3)cc1Cl (atropisomer, axis not shown) [Example 124, (S)-2-(tert-Butoxy)-2-((R)-1-(3-chloro-4-methoxybenzoyl)-4-(8-fluoro-5-methylchroman-6-yl)-6-methylindolin-5-yl)acetic acid] | 3 |
